15 compounds from US7288564B2, “Indole derivatives” (Glaxo Group Limited, priority 2000, dated 2007) can be followed below.

T1 sequence (P35408 whole entry): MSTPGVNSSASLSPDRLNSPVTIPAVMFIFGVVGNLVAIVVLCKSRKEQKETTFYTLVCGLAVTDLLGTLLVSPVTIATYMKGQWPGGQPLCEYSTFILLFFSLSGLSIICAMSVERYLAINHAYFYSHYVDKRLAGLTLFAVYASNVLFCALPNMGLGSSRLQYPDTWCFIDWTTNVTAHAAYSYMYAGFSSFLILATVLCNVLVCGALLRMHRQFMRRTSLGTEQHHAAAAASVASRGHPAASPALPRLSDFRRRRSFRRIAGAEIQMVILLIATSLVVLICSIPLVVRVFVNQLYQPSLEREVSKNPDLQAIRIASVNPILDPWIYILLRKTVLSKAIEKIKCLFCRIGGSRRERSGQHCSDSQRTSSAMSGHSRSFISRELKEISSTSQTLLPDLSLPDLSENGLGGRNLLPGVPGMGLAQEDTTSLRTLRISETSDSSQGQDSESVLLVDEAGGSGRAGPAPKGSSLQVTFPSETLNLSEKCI

The target in one test is T1, human EP4 receptor (Homo sapiens, UniProt P35408). The test can be described thus: Human EP4 Scintillation Proximity Assay (radioligand binding). The arrangement: expressed in transfected cells; host or cells: CHO cells infected with Semliki Forest Virus (SFV-1) particles; membranes prepared. To be noted: membranes of CHO cells expressing human EP4; 1.25 nM [3H]-prostaglandin E2; Cheng-Prusoff; read-out: pKi at EP4 receptors (converted). Here is the method:
Quantification of radioligand binding by scintillation proximity assay (SPA) is a long-established principle. Briefly, the affinity of compounds for a receptor is assessed by the specific competition between known quantities of radiolabelled ligand compound for that receptor. Increasing concentrations of compound reduce the amount of radiolabel that binds to the receptor. This gives rise to a diminishing scintillation signal from SPA beads coated with membranes that bear the receptor. The signal may be detected with a suitable scintillation counter and the data generated may be analysed with suitable curve-fitting software.
The human EP4 SPA assay (hereafter referred to as ‘the assay’) utilises membranes prepared from Chinese Hamster Ovary (CHO cells) infected with Semliki Forest Virus (SFV). Genetically engineered SFV-1 viral particles containing the genetic sequence of the human EP4 receptor were used to infect CHO cells resulting in expression of th receptor protein in cellular membranes.
Cells washed free of media are homogenised in a pH-buffered medium containing peptidase inhibitors. A suitable buffer is of the following composition: 50 mM HEPES, 1 mM EDTA, 25 μg/ml bacitracin, 100 μM leupeptin, 1 mM PMSF, 2 μM Pepstatin A, pH adjusted to 7.4 with KOH. Following removal of cell debris by a low-speed centrifugation, a pellet of membranes is prepared by a high-speed (48000 g) centrifugation of the resulting supernatant. Membrane suspensions such as that described may be stored at −80° C. until used.
For assay, membranes expressing human EP4 receptors are diluted in a pH-buffered medium and mixed with SPA beads coated with a suitable substance to facilitate the adhesion of membranes to the beads. The concentrations of membrane protein and SPA beads chosen should result in SPA binding signal of at least 300 corrected counts per minute (CCPM) when tritiated radioligand at a concentration close to its Kd (affinity value) is combined with the mixture. Non-specific binding (nsb) may be determined by competition between the radiolabelled ligand and a saturating concentration of unlabelled ligand. In order to quantify the affinity of EP4 receptor ligands, compounds are diluted in a stepwise manner across the wells of a 96-well plate. Radioligand, compound, and unlabelled ligand are then added to a 96-well plate suitable for the measurement of SPA binding signals prior to the addition of bead/membrane mixture to initiate the binding reaction. Equilibrium may be achieved by incubation at room temperature for 120 minutes prior to scintillation counting. The data so generated may be analysed by means of a computerised curve-fitting routine in order to quantify the concentration of compound that displaces 50% of the specific radioligand binding (IC50). The affinity (pKi) of the compound may be calculated from the IC50 by application of the Cheng-Prusoff correction. Suitable reagents and protocols are: reaction buffer containing 50 mM HEPES, 10 mM MgCl2, pH adjusted to 7.4 with KOH; SPA beads coated with wheatgerm agglutinin; 1.25 nM [^3H]-prostaglandin E2 as radioligand; 10 μM prostaglandin E2 as unlabelled ligand; a three-fold dilution series of compound starting at 10 μM and ending at 0.3 nM is adequate.
A general note: Scintillation proximity formats need no separation of bound from free tracer.
For the compound `COc1ccc2[nH]c(C)c(CC(=O)Nc3cc(C)ccc3C(=O)O)c2c1` [Example 1, 2-{[(5-methoxy-2-methyl-1H-indol-3-yl)acetyl]amino}-4-methylbenzoic acid], the Ki is ≤ 100 nM.

With `Cc1ccc(C(=O)O)c(NC(=O)Cc2c[nH]c3ccccc23)c1` [Example 2, 2-[(1H-indol-3-ylacetyl)amino]-4-methylbenzoic acid], the Ki was ≤ 100 nM.

As to `Cc1ccc(C(=O)O)c(NC(=O)Cc2c(C)[nH]c3ccccc23)c1` [Example 3, 4-methyl-2-{[(2-methyl-1H-indol-3-yl)acetyl]amino}benzoic acid], the Ki is ≤ 100 nM. On the same count and under the same terms, next, `Cc1ccc(C(=O)O)c(NC(=O)Cc2c[nH]c3ccc(F)cc23)c1` [Example 4, 2-{[(5-fluoro-1H-indol-3-yl)acetyl]amino}-4-methylbenzoic acid]: ≤ 100 nM; `Cc1ccc(C(=O)O)c(NC(=O)Cc2c[nH]c3ccc(Br)cc23)c1` [Example 6, 2-{[(5-bromo-1H-indol-3-yl)acetyl]amino}-4-methylbenzoic acid]: ≤ 100 nM. `COc1ccc2[nH]cc(CC(=O)Nc3cc(C)ccc3C(=O)O)c2c1` [Example 7, 2-{[(5-methoxy-1H-indol-3-yl)acetyl]amino}-4-methylbenzoic acid]: the Ki was ≤ 100 nM. As to `Cc1ccc(C(=O)O)c(NC(=O)Cc2c(-c3ccccc3)[nH]c3ccccc23)c1` [Example 9, 4-methyl-2-{[(2-phenyl-1H-indol-3-yl)acetyl]amino}benzoic acid], the Ki was ≤ 100 nM. `COc1ccc2[nH]c(C)c(CC(=O)Nc3cc(F)ccc3C(=O)O)c2c1` [Example 10, 4-fluoro-2-{[(5-methoxy-2-methyl-1H-indol-3-yl)acetyl]amino}benzoic acid]: the Ki is ≤ 100 nM. Consider `COc1ccc2[nH]c(C)c(CC(=O)Nc3cc(Cl)ccc3C(=O)O)c2c1` [Example 11, 4-chloro-2-{[(5-methoxy-2-methyl-1H-indol-3-yl)acetyl]amino}benzoic acid], for which the Ki is ≤ 100 nM. For `COc1ccc2[nH]c(C)c(CC(=O)Nc3cc([N+](=O)[O-])ccc3C(=O)O)c2c1` [Example 12, 2-{[(5-methoxy-2-methyl-1H-indol-3-yl)acetyl]amino}-4-nitrobenzoic acid], the Ki was ≤ 100 nM. Take `COc1ccc2[nH]c(C)c(CC(=O)Nc3ccccc3C(=O)O)c2c1` [Example 13, 2-{[(5-methoxy-2-methyl-1H-indol-3-yl)acetyl]amino}benzoic acid]: the Ki is ≤ 100 nM. Regarding `COc1ccc2[nH]c(C)c(CC(=O)Nc3cc(C(F)(F)F)ccc3C(=O)O)c2c1` [Example 17, 2-{[(5-methoxy-2-methyl-1H-indol-3-yl)acetyl]amino}-4-(trifluoromethyl)benzoic acid], the Ki was ≤ 100 nM. For `COc1cc2[nH]c(C)c(CC(=O)Nc3cc(C)ccc3C(=O)O)c2cc1OC` [Example 20, 2-{[(5,6-dimethoxy-2-methyl-1H-indol-3-yl)acetyl]amino}-4-methylbenzoic acid], the Ki is ≤ 100 nM. Still for that read-out and setting: under `Cc1ccc(C(=O)O)c(NC(=O)Cc2c(C)[nH]c3ccc(Cl)cc23)c1` [Example 21, 2-{[(5-chloro-2-methyl-1H-indol-3-yl)acetyl]amino}-4-methylbenzoic acid] stands ≤ 100 nM; under `CCc1ccc(C(=O)O)c(NC(=O)Cc2c(C)[nH]c3ccc(OC)cc23)c1` [Example 26, 4-ethyl-2-{[(5-methoxy-2-methyl-1H-indol-3-yl)acetyl]amino}benzoic acid], ≤ 100 nM.

A further test addresses T1, human EP4 receptor. Briefly: [125I]cAMP Scintillation Proximity Assay (cAMP assay), EP4 antagonism. Set-up: host or cells: HEK-293 cells. To be noted: HEK-293 cells expressing recombinant human EP4; method of Arunlakshana and Schild; read-out: pKb at EP4 receptors (converted). The test is classed as cell-based. The method, then:
The cAMP assay utilises HEK-293 cells expressing the recombinant human EP4 receptor, obtained from Receptor Biology, Inc. Beltsville, Md., USA. The cells were cultured in Dulbecco's Modified Eagle Medium—HAM F12 mix (DMEM-F12), containing 10% heat inactivated-foetal bovine serum (FBS) and 2 mM L-glutamine. The cells were either passaged into fresh medium or used in an assay once 90% confluency as determined visually had been achieved.
The cells were harvested by treatment with Versene, re-suspended in fresh culture medium and plated out to yield approximately 10,000 cells per well of a 96-well plate for overnight culture in culture medium additionally supplemented with 3 μM indomethacin. For assay, the culture medium was replaced with assay medium (DMEM-F12 containing 300 μM isobutylmethylxanthine (IBMX) and 3 μM indomethacin) and incubated for 30 minutes. Following this, antagonist was then added at various concentrations such that an entire agonist concentration-effect curve could be obtained in the presence of a single concentration of the antagonist. […] The amount of cAMP in each well was then determined by [^125I]cAMP scintillation proximity assay using a proprietary kit, obtained from Amersham, Buckinghamshire, UK, and according to the manufacturer's instructions.
Data from cAMP assays were expressed as pmol cAMP per well. […]
On to `COc1ccc2[nH]c(C)c(CC(=O)Nc3cc(C)ccc3C(=O)O)c2c1` [Example 1, 2-{[(5-methoxy-2-methyl-1H-indol-3-yl)acetyl]amino}-4-methylbenzoic acid], for which the Kb was < 10 nM.
